{"source": "patent US7318917B2", "about": "“Rapid assays for neurotransmitter transporters” (Vanderbilt University, priority 2002, dated 2008)", "key": {"SERT [1]": {"target": "T1, SERT (Homo sapiens, UniProt P31645)", "T1 construct": "expressed in transfected cells", "T1 sequence (P31645 whole entry)": "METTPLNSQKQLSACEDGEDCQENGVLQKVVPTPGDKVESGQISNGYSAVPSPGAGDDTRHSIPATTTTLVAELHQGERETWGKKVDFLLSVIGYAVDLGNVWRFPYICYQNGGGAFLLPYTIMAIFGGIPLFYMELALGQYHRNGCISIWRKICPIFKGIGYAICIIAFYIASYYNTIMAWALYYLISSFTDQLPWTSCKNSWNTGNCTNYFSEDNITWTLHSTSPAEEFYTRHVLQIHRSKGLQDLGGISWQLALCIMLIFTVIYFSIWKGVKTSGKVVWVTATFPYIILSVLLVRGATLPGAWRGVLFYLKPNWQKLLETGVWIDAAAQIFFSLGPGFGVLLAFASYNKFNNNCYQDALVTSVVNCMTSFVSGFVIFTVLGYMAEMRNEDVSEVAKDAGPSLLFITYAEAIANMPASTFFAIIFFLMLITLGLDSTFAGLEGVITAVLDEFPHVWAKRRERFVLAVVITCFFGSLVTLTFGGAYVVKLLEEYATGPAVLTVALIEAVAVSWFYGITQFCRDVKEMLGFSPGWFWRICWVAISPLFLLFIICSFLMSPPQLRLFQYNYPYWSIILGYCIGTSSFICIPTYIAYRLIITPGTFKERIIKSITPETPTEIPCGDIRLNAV", "assay": "ASP+ accumulation in hSERT-transfected HEK cells by confocal fluorescence microscopy", "type": "cell-based", "settings": "2 mM ASP as printed in the FIG. 3 legend", "protocol": "(§1) FIGS. 3A-3L. Monoamine transporters interact with ASP^+. Like HEK-hNET cells hDAT and hSERT transfected cells accumulate ASP^+. hNET (FIGS. 3A, 3B & 3C), hDAT (FIGS. 3D, 3E & 3F), hSERT (FIGS. 3G, 3H & 3I) and HEK-293 (FIGS. 3J, 3K & 3L) were exposed to 2 mM ASP for the times indicated in FIGS. 3J, 3K & 3L. The color gradient represented in FIG. 3J denotes the corresponding ASP^+ intensity values.\n(§2) HEK-hNET cells were plated on 35 mm glass bottom Petri-dishes (MatTek, Ashland, Mass.) coated with poly-L-lysine three days prior to experimentation. The culture medium was aspirated, cells were immediately mounted on a Zeiss 410 confocal microscope and the microscope was focused on the center of the monolayer of cells. During the confocal measurment cells remain without buffer for approximately thirty seconds. Background autoflourescence was established by collecting images for ten seconds prior to the addition of KRH (see Radiolabeled Transport),[…] Glucose, 10 μM ascorbic acid, 10 μM pargalyine, 10 μM tropolone (Sigma, Boulder CO), and ASP^+. […] The effects of photobleaching on ASP^+ accumulation were determined by examining the rate of ASP^+ fluorescence at various acquisition rates. […]\n(§3) The fluorescent images were processed using MetaMorph imaging software (Universal Imaging Corporation, Downington Pa.). […] All cells are subtracted against auto-fluorescence."}, "SERT [2]": {"target": "T1, SERT", "assay": "ASP+ uptake assay on FLEXstation, SERT-transfected HEK-293 cells", "type": "cell-based", "settings": "FIG. 10C", "protocol": "HEK-293 cells (American Type Culture Collection, Manassas, Va.) and HEK-293 cells stably transfected with SERT, NET, or DAT (Qian et al, 1997) were maintained in monolayer culture at 37° C., 5% CO2 in Dulbecco's modified Eagle's medium (DMEM) containing 10% fetal bovine serum, 2 mM glutamine, 100 units/ml penicillin, and 100 μg/ml streptomycin. Medium for the transfected lines was supplemented with G418 (250 μg/ml). Trypsin, glutamine, penicillin, streptomycin, G418, and phosphate-free DMEM were purchased from Life Technologies, Inc. or obtained from the Vanderbilt Media Core. For all transport assays, cells were plated on poly-D-lysine (0.1 mg/ml)-coated (0.1 mg/ml)-coated 96-well plates. […]\nTo limit the time delay between the addition of ASP^+ and the measurement of accumulation of ASP^+ during the kinetic assays, plates were divided in half and assayed one half at a time. […] After incubation, ASP^+ was added to the first 6 columns in 20 μL aliquots at indicated concentrations and accumulated fluorescence measured and recorded over time by the FLEXStation ultilizing SoftMax Pro Software. Then, ASP^+ was added to the last 6 columns and fluorescence accumulation measured and recorded. […]\nEndpoint assays were conducted to evaluate the sensitivity of ASP^+ uptake to transporter antagonists. […] ASP^+ accumulation was measured after 10 minutes. […]"}, "NET [3]": {"target": "T2, NET (Homo sapiens, UniProt P23975)", "T2 sequence (P23975 whole entry)": "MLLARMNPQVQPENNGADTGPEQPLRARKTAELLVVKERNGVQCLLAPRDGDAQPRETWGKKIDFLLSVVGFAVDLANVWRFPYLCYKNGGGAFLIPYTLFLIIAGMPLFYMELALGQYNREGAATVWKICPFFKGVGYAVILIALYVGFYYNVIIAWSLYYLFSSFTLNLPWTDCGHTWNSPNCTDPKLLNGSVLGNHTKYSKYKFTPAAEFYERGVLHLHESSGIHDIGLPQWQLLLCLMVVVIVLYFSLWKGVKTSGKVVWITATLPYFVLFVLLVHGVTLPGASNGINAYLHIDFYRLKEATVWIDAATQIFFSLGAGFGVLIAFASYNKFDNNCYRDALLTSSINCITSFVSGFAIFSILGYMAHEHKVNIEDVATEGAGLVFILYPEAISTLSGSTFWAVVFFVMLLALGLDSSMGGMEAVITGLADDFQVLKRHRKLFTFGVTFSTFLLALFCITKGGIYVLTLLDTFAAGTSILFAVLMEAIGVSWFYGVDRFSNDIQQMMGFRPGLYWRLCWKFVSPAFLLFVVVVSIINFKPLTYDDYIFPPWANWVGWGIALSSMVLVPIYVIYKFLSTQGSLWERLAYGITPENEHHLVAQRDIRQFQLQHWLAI", "assay": "[3H]NE accumulation (radiolabeled transport assay) in hNET-transfected HEK-293 cells", "type": "cell-based", "parameters": "expressed in transfected cells", "settings": "Cheng-Prusoff correction, non-specific by 10 μM desipramine, N=5, mean±S.E.M., read-out: Ki, inhibition of [3H]NE accumulation", "protocol": "FIG. 1. MPP^+ and ASP^+ inhibit NE accumulation. [^3H]NE accumulation was measured in the hNET-transfected HEK-293 cells in the presence of increasing concentrations of ASP^+ or MPP^+ and normalized to similar data in the absence of an inhibitor. […]. The data were fit to NE transport remaining by the equation y=100/(1+([I]/IC50)^n), where [I] is the concentration of ASP^+ or MPP^+ and Ki values were determined using Cheng-Prusoff correction for substrate concentration. […] Values are represented as means±S.E.M., N=5.\nAll accumulation studies were performed at room temperature (22° C.) unless otherwise indicated. HEK-hNET cells were plated on poly-L-lysine coated 24-well tissue culture plates at 10^5 cells per well three days prior to performing transport assays. The cells were at approximately 90% confluence on the third day. The medium was removed by aspiration. Cells were then pre-incubated for 10 min in Krebs-Ringer's-Hepes (KRH: in mM 130 NaCl, 1.3 KCl, 2.2 CaCl2, 1.2 MgSO4, 1.2 KH2PO4, 10 Hepes, and 1.8 g/L glucose, pH 7.4) medium with or without 10 μM desipramine. […]. Pargyline (10 μM) and ascorbic acid (10 μM) were added to prevent metabolism and oxidation of NE, respectively. The assay mixture was aspirated after 10 minutes and cells were washed three times with 4° C. […] Accumulated [^3H]NE was determined by liquid scintillation of 1% (w/v) sodium dodecylsulphate solubilized cells. […]"}, "NET [4]": {"target": "T2, NET", "assay": "Fluorescence anisotropy of ASP+ in HEK-hNET cells", "type": "cell-based", "parameters": "expressed in transfected cells", "protocol": "To evaluate ASP^+ binding to the surface membranes, HEK-hNET cells were exposed to 2 μM ASP^+ with horizontal polarizer (FIG. 5C), with the polarizer rapidly switching to the vertical position. Cells were imaged with alternating polarizations for 3 minutes to measure light intensity in the horizontal (Ih) and vertical (Iv) positions in order to calculate the anisotropy ratio, r=(Iv−gIh)/(Iv+2 g Ih). The factor g was determined by using a half wave plate as described by Blackman et al. (1996). In this formulation, r =0.4 implies an immobile source (Smith et al., 1999). Surface anisotropy was measured from the cell circumference, taken as 1 pixel width. Cytosolic anisotropy was measured near the center of the cell, approximately 5 pixel widths from the membrane.\nNotice that rapid accumulation, which peaks at the cell edges (arrows), remains essentially constant between 3 and 180 sec., whereas brightness at the cell center (between arrows) gradually increases over this same period. Furthermore, accumulation at the center occurs at the same rate as phase II (compare phase II slope in FIG. 4 with center elevation in FIG. 5A). […] To test this interpretation the inventors measured the anisotropy of light from cell edges and cell centers."}, "NET [5]": {"target": "T2, NET", "type": "cell-based", "parameters": "expressed in transfected cells", "settings": "FLEXstation, FIG. 10A", "protocol": "(§4) Medium for the transfected lines was supplemented with G418 (250 μg/ml). Trypsin, glutamine, penicillin, streptomycin, G418, and phosphate-free DMEM were purchased from Life Technologies, Inc. or obtained from the Vanderbilt Media Core. For all transport assays, cells were plated on poly-D-lysine (0.1 mg/ml)-coated (0.1 mg/ml)-coated 96-well plates. HEK cells were plated at 12,500 cells per well in 96 well plates, HEK-DAT cells were plated at 15,000 cells per well, HEK-NET cells were plated at 20,000 per well, and HEK-SERT cells were plated at 20,000 per well in a volume of 200 uL. HEK, HEK-DAT, and HEK-SERT cells were grown for 48 hours and HEK-NET cells were grown for 72 hours to a confluency of ˜90%.\n(§5) ASP^+ was obtained from Molecular Probes, Inc. and dissolved in KRH buffer to indicated concentrations. Trypan Blue was obtained from Sigma as a 0.4% solution and diluted to a final concentration of 30 uM in KRH buffer.\n(§6) To limit the time delay between the addition of ASP^+ and the measurement of accumulation of ASP^+ during the kinetic assays, plates were divided in half and assayed one half at a time. At assay, the medium was removed from wells in the first 6 columns by aspiration, and the cells were incubated with Trypan Blue in KRH buffer for 20 minutes at 37° C.in room air. Then, medium was removed from the wells in the last 6 columns and replaced with Trypan Blue in KRH buffer."}, "DAT [6]": {"target": "T3, DAT (Homo sapiens, UniProt Q01959)", "T3 sequence (Q01959 whole entry)": "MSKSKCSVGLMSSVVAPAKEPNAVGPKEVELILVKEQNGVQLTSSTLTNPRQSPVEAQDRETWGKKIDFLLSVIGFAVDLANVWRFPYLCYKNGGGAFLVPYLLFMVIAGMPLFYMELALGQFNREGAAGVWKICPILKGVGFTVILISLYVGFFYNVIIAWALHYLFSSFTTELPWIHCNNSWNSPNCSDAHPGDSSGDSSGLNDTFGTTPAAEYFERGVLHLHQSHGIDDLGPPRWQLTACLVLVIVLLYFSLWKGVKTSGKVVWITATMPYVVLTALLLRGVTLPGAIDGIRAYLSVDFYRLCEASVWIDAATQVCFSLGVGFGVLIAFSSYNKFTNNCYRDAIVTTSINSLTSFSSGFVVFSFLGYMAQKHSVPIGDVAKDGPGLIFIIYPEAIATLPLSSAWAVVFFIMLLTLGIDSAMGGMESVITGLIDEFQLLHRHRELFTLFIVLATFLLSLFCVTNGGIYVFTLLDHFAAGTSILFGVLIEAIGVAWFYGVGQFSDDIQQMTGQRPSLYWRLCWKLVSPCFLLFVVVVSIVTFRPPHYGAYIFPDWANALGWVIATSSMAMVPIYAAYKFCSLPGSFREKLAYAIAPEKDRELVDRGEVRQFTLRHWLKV", "assay": "ASP+ uptake assay on FLEXstation, DAT-transfected HEK-293 cells", "type": "cell-based", "parameters": "expressed in transfected cells", "settings": "FIG. 10B", "protocol": "as §4, §5, §6"}, "DAT [7]": {"target": "T3, DAT", "assay": "ASP+ accumulation in hDAT-transfected HEK cells by confocal fluorescence microscopy", "type": "cell-based", "parameters": "expressed in transfected cells; host or cells: HEK-293", "settings": "2 mM ASP as printed in the FIG. 3 legend", "protocol": "as §1, §2, §3"}, "NET [8]": {"target": "T2, NET", "assay": "ASP+ accumulation in HEK-hNET cells by confocal fluorescence microscopy (phase I binding, phase II transport)", "parameters": "NET-mediated ASP accumulation after pre-incubation (endocytosis test): dose or concentration left out as unconfirmed", "settings": "for phase II (ASP+ transport) slope in the presence of the agent: 10 min pre-incubation with 10 μM cocaine or 30 μM NE; for phase II (ASP+ transport) slope in the presence of the agent / phase I (ASP+ binding) slope in the presence of the agent: then 2 μM ASP+, gramicidin 10 mg/mL 15 min before ASP+; for phase I (ASP+ binding) slope in the presence of the agent: 10 min pre-incubation with 10 μM desipramine, 10 μM cocaine or 30 μM NE"}, "NET [9]": {"test_system": "NET", "type": "cell-based", "settings": "2 μM ASP+, 10 min pre-incubation with 10 μM desipramine", "experimental": "SCG neurons were dissociated by trituration followed by digestion with 0.25% trypsin and 0.3% collagenase. Non-neuronal cells were removed by preplating on uncoated, Falcon 60 mm plates. Neurons were cultured on poly-L-ornithine/laminin/poly D-lysine coated MatTek Dishes at a density of 3000-4000 cells/well in F-14^+ media containing 5% fetal calf serum, 2 mM L-glutamine, 60 ng/ml progesterone, 16 mg/ml putrescine, 400 ng/ml L-thyroxine, 38 ng/ml sodium selenite, 340 ng/ml tri-iodothyroxine, 5 mg/ml insulin, penicillin/streptomycin, 10 μM fluorodeoxyuridine and 20 ng/ml NGF. The neurons were maintained for 3-5 days in the presence of NGF before use.\nThe interactions of ASP^+ with NET in primary tissue culture neurons were also examined."}, "OCT": {"test_system": "OCT", "settings": "10 μM; cited from earlier work"}}}
{"compound": "CN(C)c1ccc(C=Cc2cc[n+](C)cc2)cc1", "note": "[ASP^+, 4-(4-dimethylaminostyrl)-N-methylpyridinium]", "values": [{"measurement": "ASP+ accumulation by hSERT transfected cells", "setting": "SERT [1]", "result": "accumulate"}, {"measurement": "concentration-response of ASP+ accumulation, SERT", "setting": "SERT [2]", "result": "concentration-dependent accumulation"}, {"measurement": "Ki", "setting": "NET [3]", "result": "780 ± 77", "unit": "nM"}, {"measurement": "fluorescence anisotropy, solution ASP+", "setting": "NET [4]", "result": 0.15}, {"measurement": "concentration-response of ASP+ accumulation, NET", "setting": "NET [5]", "result": "concentration-dependent accumulation"}, {"measurement": "concentration-response of ASP+ accumulation, DAT", "setting": "DAT [6]", "result": "concentration-dependent accumulation"}, {"measurement": "ASP+ accumulation by hDAT transfected cells", "setting": "DAT [7]", "result": "accumulate"}, {"measurement": "ASP+ accumulation by cells expressing NET", "setting": "NET [8]; 800 nM ASP+, images at 0, 3 and 180 seconds", "result": "accumulate"}, {"measurement": "Phase I n", "setting": "NET [8]; exponent n of the phase I fit", "result": "1.15±0.30"}, {"measurement": "Phase II n", "setting": "NET [8]; exponent n of the phase II fit", "result": "1.51±0.35"}, {"measurement": "Phase I Vmax", "setting": "NET [8]; phase I (ASP+ binding) slope as a function of ASP+ concentration", "result": "10.5±0.94", "unit": "AFUs/sec"}, {"measurement": "potency of ASP+ accumulation for hNET", "setting": "NET [8]; summary statement", "result": "sub-μM potency"}]}
{"compound": "C[n+]1ccc(-c2ccccc2)cc1", "note": "[MPP^+]", "values": [{"measurement": "Ki", "setting": "NET [3]", "result": "600 ± 67", "unit": "nM"}]}
{"compound": "NC[C@H](O)c1ccc(O)c(O)c1", "note": "[NE]", "values": [{"measurement": "phase II (ASP+ transport) slope in the presence of the agent", "setting": "NET [8]", "result": "reduced"}, {"measurement": "phase I (ASP+ binding) slope in the presence of the agent", "setting": "NET [8]", "result": "insignificant"}, {"measurement": "effect on ASP+ accumulation in hNET-expressing HEK cells", "setting": "NET [8]; summary statement", "result": "competed for"}]}
{"compound": "CNCCCN1c2ccccc2CCc2ccccc21", "note": "[desipramine]", "values": [{"measurement": "sensitivity of ASP+ accumulation in SCG cells to desipramine", "setting": "NET [9]", "result": "desipramine sensitive"}, {"measurement": "effect on OCT activity", "setting": "OCT", "result": "without affecting"}]}
{"compound": "OC[C@H]1O[C@@](CO)(O[C@H]2O[C@H](CO)[C@@H](O)[C@H](O)[C@H]2O)[C@@H](O)[C@@H]1O", "note": "[sucrose]", "values": [{"measurement": "NET-mediated ASP accumulation after pre-incubation (endocytosis test)", "setting": "NET [8]; thirty-minute pre-incubation", "result": "unaffected"}]}
{"compound": "Gramicidin", "values": [{"measurement": "phase II (ASP+ transport) slope in the presence of the agent", "setting": "NET [8]", "result": "reduces the slope"}, {"measurement": "phase I (ASP+ binding) slope in the presence of the agent", "setting": "NET [8]", "result": "reduces the slope"}]}
